According to US8053585B2, “Protecting group for carboxylic acids that can be photolyzed by visible light” (Cornell Research Foundation, Inc., priority 2006, dated 2011):

What was measured:
GluR6 glutamate receptor = test: Whole-cell current recording with cell-flow method, HEK 293 cells expressing GluR6; type: cell-based
From the text: In whole-cell current recording experiments with DECM-caged glutamate, HEK 293 cells stably transfected with cDNA encoding the GluR6 were used. In whole-cell current recording experiments with DECM-caged glycine, HEK 293 cells were transiently transfected with the cDNA of the α1-subunit of the human glycine receptor by using the Polyfect™ transfection reagent (Qiagen GmbH, D-40724, Hilden, Germany). The cDNA of the α1-subunit was kindly provided by Professor H. Betz (Max-Plank-Institute for brain Research, Frankfurt, Germany). The cells were co-transfected with cDNA encoding the green fluorescent protein (pGreen Lantern plasmid, Life Technologies, Gaitherberg, Md.) to detect transfected cells (Chalfie et al., “Green Fluorescent Protein as a Marker for Gene Expression,” Science 263:802-805 (1994), which is hereby incorporated by reference in its entirety).
The cells were used for electrophysiological experiments between 24 and 72 h after each passage. Whole-cell currents evoked by glutamate or glycine (100 μM) were recorded using the whole-cell configuration (Hamill et al., “Improved Patch-Clamp Techniques for High-Resolution Current Recording From Cells and Cell-Free Membrane Patches,” Pfluegers Arch 391:85-100 (1981), which is hereby incorporated by reference in its entirety) at room temperature, −60 mV, and pH 7.4. The experiments using DECM-caged glutamate were carried out in the absence or presence of 2 mM DECM-caged glutamate (FIG. 5A) or 1 mM 7-N,N-diethylamino-4-hydroxymethylcoumarin (2) (FIG. 5B). Alternatively, the experiments using DECM-caged glycine were carried out in the absence or presence of 1 mM DECM-caged-glycine (FIG. 10). The solution in the recording pipet contained 120 mM CsCl, 10 mM EGTA, and 10 mM HEPES, adjusted to pH 7.4. The HEK cell bath solution contained 150 mM NaCl, 1 mM CaCl2, 10 mM HEPES, pH 7.4. The resistance of the recording electrode filled with buffer solution was typically 3-5 MΩ and the series resistance was 5-6 MΩ. The cells were held at a constant transmembrane voltage of −60 mV and room temperature (22° C.). […]

[1] = target: T1, α1-subunit of the human glycine receptor (Homo sapiens, UniProt P23415); test: Flash lamp photolysis of DECM-caged glycine on HEK 293 cells; type: cell-based; settings: 1 mM caged compound
T1 construct: expressed in transfected cells; host or cells: HEK 293 cells, transiently transfected (Polyfect), co-transfected with GFP plasmid as marker; cDNA from Prof; H. Betz
T1 sequence (P23415 29-457): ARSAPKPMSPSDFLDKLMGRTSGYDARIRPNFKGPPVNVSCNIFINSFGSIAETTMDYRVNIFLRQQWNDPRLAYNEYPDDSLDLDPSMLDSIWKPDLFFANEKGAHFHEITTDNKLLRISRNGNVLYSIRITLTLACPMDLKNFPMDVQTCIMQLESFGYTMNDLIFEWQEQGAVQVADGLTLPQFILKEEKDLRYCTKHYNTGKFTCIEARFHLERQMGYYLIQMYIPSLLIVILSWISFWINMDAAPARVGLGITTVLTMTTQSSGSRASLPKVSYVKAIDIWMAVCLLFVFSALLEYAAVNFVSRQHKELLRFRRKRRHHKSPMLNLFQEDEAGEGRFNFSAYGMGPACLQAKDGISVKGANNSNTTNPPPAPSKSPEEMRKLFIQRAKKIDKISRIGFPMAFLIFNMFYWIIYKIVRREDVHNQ
Method: The cells were used for electrophysiological experiments between 24 and 72 h after each passage. Whole-cell currents evoked by glutamate or glycine (100 μM) were recorded using the whole-cell configuration (Hamill et al., “Improved Patch-Clamp Techniques for High-Resolution Current Recording From Cells and Cell-Free Membrane Patches,” Pfluegers Arch 391:85-100 (1981), which is hereby incorporated by reference in its entirety) at room temperature, −60 mV, and pH 7.4. The experiments using DECM-caged glutamate were carried out in the absence or presence of 2 mM DECM-caged glutamate (FIG. 5A) or 1 mM 7-N,N-diethylamino-4-hydroxymethylcoumarin (2) (FIG. 5B). Alternatively, the experiments using DECM-caged glycine were carried out in the absence or presence of 1 mM DECM-caged-glycine (FIG. 10). The solution in the recording pipet contained 120 mM CsCl, 10 mM EGTA, and 10 mM HEPES, adjusted to pH 7.4. The HEK cell bath solution contained 150 mM NaCl, 1 mM CaCl2, 10 mM HEPES, pH 7.4. The resistance of the recording electrode filled with buffer solution was typically 3-5 MΩ and the series resistance was 5-6 MΩ. The cells were held at a constant transmembrane voltage of −60 mV and room temperature (22° C.). Whole-cell currents were amplified by using an Axopatch 200B (Axon Instruments, Foster City, Calif.) amplifier and filtered at 1-5 kHz by using a […], low-pass, Bessel (Dagan Corporation, Minneapolis, Minn.) filter incorporated in the amplifier. The filtered signal was digitized by a Digidata 1322A (Axon Instruments, Union City, Calif.) or a Labmaster DMA 100 KHz digitizing board (Scientific Solutions, Mentor, Ohio) controlled by pCLAMP9 software (Axon Instruments).
The light produced by the Rapp (Rapp OptoElectronics, Hamburg, Germany) xenon flash lamp (SP-20) was coupled into an optical fiber (600 μm internal diameter), which delivered the light to the cell. The concentration of DECM-caged-glycine used was 1 mM for the results in FIG. 11. Typical light energies were 150-250 μJ per pulse. […] Data were analyzed with Microcal Origin3.5 software (Microcal, Northampton, Mass.).

SMILES: CCN(CC)c1ccc2c(COC(=O)CCC(N)C(=O)O)cc(=O)oc2c1 (centres unmarked) [DECM-caged glutamate, (7-N,N-Diethylaminocoumarin-4-yl)-methyl-glutamate-trifluoroacetate]
- whole-cell current evoked by 100 μM glutamate, presence vs absence of compound (GluR6 glutamate receptor; 2 mM DECM-caged glutamate, −60 mV, pH 7.4, 22° C.): do not inhibit
- biological activity at glutamate receptors (inhibition or activation) (GluR6 glutamate receptor; HEK-293 cells expressing glutamate receptors): biologically inert

SMILES: CCN(CC)c1ccc2c(COC(=O)CN)cc(=O)oc2c1 [DECM-caged glycine, (7-N,N-Diethylaminocoumarin-4-yl)-methyl-glycine-trifluoroacetate]
- concentration of liberated glycine ([1]; flash-lamp light pulse, 250 μJ): 60 µM
- I∞, current at t=∞ ([1]; −60 mV, pH 7.4, 22° C.): −4950±57 pA
- kobs, apparent pseudo first-order rate constant of the current rise ([1]; −60 mV, pH 7.4, 22° C.): 125 ± 16 s⁻¹
